Experiments:
[1] = molecular target: T1, Vitamin D3 receptor (Sus scrofa domesticus) (UniProt Q7M3G7); test: Compound was tested for its relative affinity to pig intestinal mucosa Vitamin D3 receptor using [3H]- 1 alpha,25(OH)2 D3 radioligand compared to 1 alpha 25-(OH)2D3; assay type: tissue-based
T1 sequence (whole entry): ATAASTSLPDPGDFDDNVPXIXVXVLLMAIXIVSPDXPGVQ

Keratinocyte = test: Compound was tested in vitro for its biological evaluation against keratinocytes cell line; assay type: functional
MCF7 = test: Compound was tested in vitro for its biological evaluation against MCF-7 cell line; assay type: functional, Homo sapiens
[2] = Ratio of biological evaluation of compound in keratinocytes and calcium sreum was determined. value expressed as relative toxicity.; assay type: cell-based
HL-60 = test: Compound was tested in vitro for its biological evaluation against HL-60 cell line; assay type: functional, Homo sapiens
MG-63 = test: Compound was tested in vitro for its biological evaluation against MG-63 cell line; assay type: functional, Homo sapiens
Mus musculus = test: In vivo effect in vitamin D-replete normal NMRI mice by measuring calcium levels in serum; assay type: functional
[3] = Ratio of biological evaluation of compound in keratinocytes and calcium serum was determined. value expressed as relative toxicity.; assay type: cell-based

| Relative affinity [1] | Compound | Activity (Keratinocyte) | Activity (MCF7) | Ratio [2] | Activity (HL-60) | Activity (MG-63) | Activity (Mus musculus) | Ratio [3] |
| --- | --- | --- | --- | --- | --- | --- | --- | --- |
| 0.7 | C=C1C(=CC=CC2CCCC([C@@H](C)CC#CC(C)(C)O)C2(C)C)C[C@@H](O)C[C@@H]1O (stereo not given in full) | 7 | 4 | 28 | 10 | 20 | 0.25 | – |
| 70 | C=C1/C(=C\C=C2/CCC[C@]3(C)C([C@H](C)CC#CC(C)(C)O)=CC[C@@H]23)C[C@@H](O)C[C@@H]1O [ILX23-7553] | 8000 | 4250 | 1300 | 1000 | 1000 | 10 | – |
| 60 | C=C1C(=CC=CC2CCCC([C@H](C)CC#CC(C)(C)O)C2(C)C)C[C@@H](O)C[C@@H]1O (stereo not given in full) | 200 | 100 | – | 85 | – | <0.1 | 2000 |
